Earlier results on 1 compound are cited in PMC5760531, “Action Potential Recording and Pro-arrhythmia Risk Analysis in Human Ventricular Trabeculae” (Frontiers in Physiology, 2018).

Structures are written as SMILES.

The term IC50 denotes the concentration that gives 50% inhibition.

For the series, the system named is Nav1.5. Also noted: method as in Qu and Vargas, 2015. Conditions: previous experiments; ref Qu and Vargas, 2015; cited from earlier work.

Take `Nc1nnc(-c2cccc(Cl)c2Cl)c(N)n1` [LAMOTRIGINE, Lamotrigine]: the 50% inhibitory concentration (IC50) is 40 µM.
